Reference: patent US6900219B2, “ABCA-1 elevating compounds” (CV Therapeutics, Inc., priority 2002, dated 2005)

Tested on: ABCA-1 gene
Experiment: compounds tested and found to elevate cellular expression of the ABCA-1 gene (Examples 1-6; test not named)
Format: cell-based
Method: Activity testing is conducted as described in those patents and patent applications referenced above, and in the Examples below, and by methods apparent to one skilled in the art.

SMILES	cellular expression of the ABCA-1 gene
COc1cc(C(=O)NC2=NCCS2)cc(OC)c1OC [(3,4,5-trimethoxyphenyl)-N-(1,3-thiazolin-2-yl)carboxamide]	elevate cellular expression of the ABCA-1 gene
COc1cc(C(=O)NC2=NC(=O)CS2)cc(OC)c1OC [(3,4,5-trimethoxyphenyl)-N-(4-oxo(1,3-thiazolin-2-yl))carboxamide]	elevate cellular expression of the ABCA-1 gene
O=C(NC1=NCCS1)c1ccc(Cl)c(Cl)c1 [(3,4-dichlorophenyl)-N-(1,3-thiazolin-2-yl)carboxamide]	elevate cellular expression of the ABCA-1 gene
O=C1CSC(NC(=O)c2ccc(Cl)c(Cl)c2)=N1 [(3,4-dichlorophenyl)-N-(4-oxo(1,3-thiazolin-2-yl))carboxamide]	elevate cellular expression of the ABCA-1 gene
O=C(Nc1nc2ccccc2c(=O)o1)c1ccc(Cl)c(Cl)c1 [(3,4-dichlorophenyl)-N-(4-oxobenzo[d]1,3-oxazin-2-yl)carboxamide]	elevate cellular expression of the ABCA-1 gene
O=C(NC1=NCCS1)c1ccc(F)c(F)c1 [(3,4-difluorophenyl)-N-(1,3-thiazolin-2-yl)carboxamide]	elevate cellular expression of the ABCA-1 gene
O=C1CSC(NC(=O)c2ccc(F)c(F)c2)=N1 [(3,4-difluorophenyl)-N-(4-oxo(1,3-thiazolin-2-yl))carboxamide]	elevate cellular expression of the ABCA-1 gene
Cc1ccc(C(=O)Nc2nc(-c3ccccc3)cs2)cc1C [(3,4-dimethylphenyl)-N-(4-phenyl(1,3-thiazol-2-yl))carboxamide]	elevate cellular expression of the ABCA-1 gene
O=C(NC1=NCCS1)c1cc(C(F)(F)F)cc(C(F)(F)F)c1 [(3,5-bistrifluoromethylphenyl)-N-(1,3-thiazolin-2-yl)carboxamide]	elevate cellular expression of the ABCA-1 gene
COc1cc(OC)cc(C(=O)NC2=NCCS2)c1 [(3,5-dimethoxyphenyl)-N-(1,3-thiazolin-2-yl)carboxamide]	elevate cellular expression of the ABCA-1 gene
COc1cc(OC)cc(C(=O)NC2=NC(=O)CS2)c1 [(3,5-dimethoxyphenyl)-N-(4-oxo(1,3-thiazolin-2-yl))carboxamide]	elevate cellular expression of the ABCA-1 gene
O=C(Nc1ccc2ccccc2c1)c1sc2ccccc2c1Cl [(3-chlorobenzo[b]thiophen-2-yl)-N-(2-naphthyl)carboxamide]	elevate cellular expression of the ABCA-1 gene
O=C(NCCc1ccccn1)c1sc2ccccc2c1Cl [(3-chlorobenzo[b]thiophen-2-yl)-N-(2-pyridyl)ethyl)carboxamide]	elevate cellular expression of the ABCA-1 gene
Cc1cccc(NC(=O)c2sc3ccccc3c2Cl)c1 [(3-chlorobenzo[b]thiophen-2-yl)-N-(3-methylphenyl)carboxamide]	elevate cellular expression of the ABCA-1 gene
O=C(Nc1ccc(Br)cc1)c1sc2ccccc2c1Cl [(3-chlorobenzo[b]thiophen-2-yl)-N-(4-bromophenyl)carboxamide]	elevate cellular expression of the ABCA-1 gene
O=C(Nc1ccc(Cl)cc1)c1sc2ccccc2c1Cl [(3-chlorobenzo[b]thiophen-2-yl)-N-(4-chlorophenyl)carboxamide]	elevate cellular expression of the ABCA-1 gene
O=C(NC1=NCCS1)c1cccc(Cl)c1 [(3-chlorophenyl)-N-(1,3-thiazolin-2-yl)carboxamide]	elevate cellular expression of the ABCA-1 gene
O=C1CSC(NC(=O)c2cccc(Cl)c2)=N1 [(3-chlorophenyl)-N-(4-oxo(1,3-thiazolin-2-yl))carboxamide]	elevate cellular expression of the ABCA-1 gene
O=C(NC1=NCCS1)c1cccc(F)c1 [(3-fluorophenyl)-N-(1,3-thiazolin-2-yl)carboxamide]	elevate cellular expression of the ABCA-1 gene
O=C1CSC(NC(=O)c2cccc(F)c2)=N1 [(3-fluorophenyl)-N-(4-oxo(1,3-thiazolin-2-yl))carboxamide]	elevate cellular expression of the ABCA-1 gene
COc1cccc(C(=O)NC2=NCCS2)c1 [(3-methoxyphenyl)-N-(1,3-thiazolin-2-yl)carboxamide]	elevate cellular expression of the ABCA-1 gene
COc1cccc(C(=O)NC2=NC(=O)CS2)c1 [(3-methoxyphenyl)-N-(4-oxo(1,3-thiazolin-2-yl))carboxamide]	elevate cellular expression of the ABCA-1 gene
O=C(c1ccc(Br)cc1)N(CCc1ccccc1)Cc1ccc(C(F)(F)F)cc1 [(4-bromophenyl)-N-(2-phenylethyl)-N-{[4-(trifluoromethyl)phenyl]methyl}-carboxamide]	elevate cellular expression of the ABCA-1 gene

SMILES	cellular expression of the ABCA-1 gene
O=C(NC1=NCCS1)c1ccc(Cl)cc1 [(4-chlorophenyl)-N-(1,3-thiazolin-2-yl)carboxamide]	elevate cellular expression of the ABCA-1 gene
O=C(Nc1ccc(Cl)cc1)c1ccc(Cl)cc1 [(4-chlorophenyl)-N-(4-chlorophenyl)carboxamide]	elevate cellular expression of the ABCA-1 gene
O=C1CSC(NC(=O)c2ccc(Cl)cc2)=N1 [(4-chlorophenyl)-N-(4-oxo(1,3-thiazolin-2-yl))carboxamide]	elevate cellular expression of the ABCA-1 gene
O=C(Nc1nc2ccccc2c(=O)o1)c1ccc(Cl)cc1 [(4-chlorophenyl)-N-(4-oxobenzo[d]1,3-oxazin-2-yl)carboxamide]	elevate cellular expression of the ABCA-1 gene
Cc1ccc(-c2cnc(NC(=O)c3ccc(Cl)cc3)s2)cc1 [(4-chlorophenyl)-N-[5-(4-methylphenyl)(1,3-thiazol-2-yl)]carboxamide]	elevate cellular expression of the ABCA-1 gene
Cn1cccc1CN(CCc1ccccn1)C(=O)c1ccc(Cl)cc1 [(4-chlorophenyl)-N-[(1-methylpyrrol-2-yl)methyl]-N-(2-(2-pyridyl)ethyl)carboxamide]	elevate cellular expression of the ABCA-1 gene
N#Cc1ccc(C(=O)NC2=NCCS2)cc1 [(4-cyanophenyl)-N-(1,3-thiazolin-2-yl)carboxamide]	elevate cellular expression of the ABCA-1 gene
N#Cc1ccc(C(=O)Nc2nc(-c3ccc4ccccc4c3)cs2)cc1 [(4-cyanophenyl)-N-(4-(2-naphthyl)(1,3-thiazol-2-yl))carboxamide]	elevate cellular expression of the ABCA-1 gene
N#Cc1ccc(C(=O)NC2=NC(=O)CS2)cc1 [(4-cyanophenyl)-N-(4-oxo(1,3-thiazolin-2-yl))carboxamide]	elevate cellular expression of the ABCA-1 gene
N#Cc1ccc(C(=O)Nc2nc(-c3ccccc3)cs2)cc1 [(4-cyanophenyl)-N-(4-phenyl(1,3-thiazol-2-yl))carboxamide]	elevate cellular expression of the ABCA-1 gene
N#Cc1ccc(C(=O)Nc2ncc(-c3ccccc3)s2)cc1 [(4-cyanophenyl)-N-(5-phenyl(1,3-thiazol-2-yl))carboxamide]	elevate cellular expression of the ABCA-1 gene
CCc1ccc(C(=O)NCCN(C(=O)Nc2ccc([N+](=O)[O-])cc2)c2ccccc2)cc1 [(4-ethylphenyl)-N-(2-{[N-(4-nitrophenyl)carbamoyl]phenylamino}ethyl)carboxamide]	elevate cellular expression of the ABCA-1 gene
CCc1ccc(C(=O)NCCN(C(=O)Nc2ccc(Oc3ccccc3)cc2)c2ccccc2)cc1 [(4-ethylphenyl)-N-(2-{phenyl[N-(4-phenoxyphenyl)carbamoyl]amino}ethyl) carboxamide]	elevate cellular expression of the ABCA-1 gene
CCc1ccc(C(=O)N(CCc2ccccn2)Cc2ccccc2[N+](=O)[O-])cc1 [(4-ethylphenyl)-N-[(2-nitrophenyl)methyl]-N-(2-(2-pyridyl)ethyl)carboxamide]	elevate cellular expression of the ABCA-1 gene
O=C(NC1=NCCS1)c1ccc(F)cc1 [(4-fluorophenyl)-N-(1,3-thiazolin-2-yl)carboxamide]	elevate cellular expression of the ABCA-1 gene
O=C1CSC(NC(=O)c2ccc(F)cc2)=N1 [(4-fluorophenyl)-N-(4-oxo(1,3-thiazolin-2-yl))carboxamide]	elevate cellular expression of the ABCA-1 gene
COc1ccc(C(=O)NC2=NCCS2)cc1 [(4-methoxyphenyl)-N-(1,3-thiazolin-2-yl)carboxamide]	elevate cellular expression of the ABCA-1 gene
COc1ccc(C(=O)NCCc2ccccn2)cc1 [(4-methoxyphenyl)-N-(2-(2-pyridyl)ethyl)carboxamide]	elevate cellular expression of the ABCA-1 gene
COc1ccc(C(=O)Nc2nc(-c3ccccc3)cs2)cc1 [(4-methoxyphenyl)-N-(4-phenyl(1,3-thiazol-2-yl))carboxamide]	elevate cellular expression of the ABCA-1 gene
Cc1ccc(C(=O)NC2=NCCS2)cc1 [(4-methylphenyl)-N-(1,3-thiazolin-2-yl)carboxamide]	elevate cellular expression of the ABCA-1 gene
Cc1ccc(C(=O)NCCc2ccccn2)cc1 [(4-methylphenyl)-N-(2-(2-pyridyl)ethyl)carboxamide]	elevate cellular expression of the ABCA-1 gene
Cc1ccc(C(=O)NC2=NC(=O)CS2)cc1 [(4-methylphenyl)-N-(4-oxo(1,3-thiazolin-2-yl))carboxamide]	elevate cellular expression of the ABCA-1 gene
O=C1CSC(NC(=O)c2ccc(OC(F)(F)F)cc2)=N1 [(4-trifluoromethoxyphenyl)-N-(4-oxo(1,3-thiazolin-2-yl))carboxamide]	elevate cellular expression of the ABCA-1 gene
